US20230103965A1, “NOVEL ACTIVATORS OF THE LIPIDATING TRANSPORTER ATP BINDING CASSETTE PROTEIN TYPE 1 (AB-CA1) AND THERAPEUTIC USES THEREOF” (RAMOT AT TEL-AVIV UNIVERSITY LTD., priority 2020, published 2023)

How the values were obtained:
ECD1 of ABCA1 [1] = biological target: T1, ECD1 of ABCA1 (Homo sapiens, UniProt O95477); experiment: Microscale thermophoresis (MST) binding, labelled protein
T1 construct: The proteins used in these experiments were Extra-Cellular Domain 1 (ECD1) of ABCA1 and Extra-Cellular Domain 2 (ECD2); purchased Biomatick
T1 sequence (O95477 43-639 limits assumed): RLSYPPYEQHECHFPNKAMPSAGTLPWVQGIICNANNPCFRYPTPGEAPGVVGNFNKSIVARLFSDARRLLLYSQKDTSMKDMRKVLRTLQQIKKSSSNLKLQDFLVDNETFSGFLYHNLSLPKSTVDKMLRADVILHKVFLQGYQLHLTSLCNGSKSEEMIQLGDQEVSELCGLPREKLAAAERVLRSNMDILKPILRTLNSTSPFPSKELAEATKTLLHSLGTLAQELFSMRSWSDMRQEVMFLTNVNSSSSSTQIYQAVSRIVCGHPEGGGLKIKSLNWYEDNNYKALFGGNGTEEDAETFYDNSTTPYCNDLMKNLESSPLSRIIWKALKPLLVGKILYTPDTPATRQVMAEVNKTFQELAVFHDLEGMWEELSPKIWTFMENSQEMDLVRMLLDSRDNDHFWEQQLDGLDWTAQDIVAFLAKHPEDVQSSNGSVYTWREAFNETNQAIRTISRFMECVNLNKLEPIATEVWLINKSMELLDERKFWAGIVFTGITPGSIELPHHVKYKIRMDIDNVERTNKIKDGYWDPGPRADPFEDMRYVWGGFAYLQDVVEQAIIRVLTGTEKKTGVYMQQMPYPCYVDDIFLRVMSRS
Method: (§1) Microscale thermophoresis (MST) measurements. MST measurements of the binding of the HTS hits to the extracellular domain (ECD) of ABCA1 were performed by two complimentary methods utilizing either fluorescently labeled proteins or the endogenous fluorescence of unlabeled proteins. This was pursued as follows:
The buffers of protein samples were exchanged on a desalting PD-10 column to MST labelling buffer (Nanotemper Technologies, NT.115). Each protein was labeled with Alexa Fluor 650 succinimidyl-ester (Thermo Fisher Scientific) in 3-fold excess and then incubated for 1 hr in the dark at room temperature. Excess dye was removed by PD-10 desalting columns. […] Protein-compound interactions were analyzed by microscale thermophoresis. […] Hits were prepared at the highest concentration soluble in MST buffer (Nanotemper)+10% DMSO. Next, hits were diluted by 2 in 16 consecutive tubes of 10 μl per tube. Then, 10 μl of the protein were added to each tube and centrifuged in 12,000 rpm for 10 minutes. Finally, the samples were loaded to the capillaries and were inserted to the MST machine. Experiments were performed on a microMonolith NT.115 Blue/Red (NanoTemper Technologies) in duplicates. Measurements were performed in standard glass capillaries (NanoTemper Technologies). […] All dissociation constants (KD) were calculated to a binding model assuming a 1:1 stoichiometry per binding partner.
(§2) The experiments were performed with the purified extracellual domains 1 (ECD1) and 2 (ECD2) of ABCA1 [18]. Two complementary MST tests were performed, in which either the proteins were labeled with a fluorescence moiety or the endogenous fluorescence of the unlabeled proteins was monitored).

[2] = tested on: apoE4 astrocytic cell line; experiment: Cellular viability / cytotoxicity of the hits; assay type: cell-based, Rodent; details: 50 μM
Method: FIG. 10: Effects of test compounds (HTS hits) on cellular viability. Experiments were performed on apoE4 astrocytic cell line in the presence of 50 μM of the indicated compounds. Viability was measured microscopically and by measurements of total cellular protein. (ii) Measurements of cytotoxicity of the hits.

Rodent Astrocytes = experiment: In situ Aβ plaque digestion by apoE4 astrocytes (orthogonal assay); assay type: cell-based
Method: FIG. 7: Schematic representation of assay measuring in situ A$ plaque degradation by apoE3 and apoE4 astrocytes. The assay is designed to measure the ability of astrocytes to digest senile plaques from brain slides of APP mice, which is impaired in apoE4 expressing astrocytes.
FIG. 9: Activity of test compounds (HTS hits) in the plaque digestion assay. Positive control is CS-6253 (25 μg/ml). Test compound concentration is 50 μM.
In situ Aβ plaque degradation by apoE3 and apoE4 astrocytes. This assay is based on measurement of the ability of the astrocytes to clear Aβ plaques following their co-incubation with brain sections of 5×FAD mice, which contain Aβ plaques. Accordingly, 20 μm coronal frozen brain sections were prepared from 9-13-month-old 5×FAD mice using cryostat and placed on glass slides, 3-4 consecutive sections in each slide. The slides were kept at −80° C. until used. At the beginning of the experiment, the slices were incubated for 48 hr at 37° C. with apoE3 and apoE4 astrocytes (10^5 cells in 100 μl medium per slice) in the presence of 50 μM, or otherwise indicated concentrations, of the HTS hits. The slides were gently placed in round petri dishes with thick wet paper, surrounding the slides. PapPen was used to draw liquid repellent borders of the sections to avoid spillage of coating out of the slides. The slides were gently washed of all containing remains by placing them in PBS for 10 minutes, and were then fixated with 4% PFA for 10 minutes, followed by 0.1% Triton solution for 10 minutes. The slides were then incubated with blocking solution (8% Horse Serum, 0.3% Triton, 1 gr/ml BSA, 0.02% Sodium Azide in PBS) for 30 minutes after which they were immunohistochemically stained with primary anti-PAmyloid (6E10) antibody at a dilution of 1:750 in blocking solution for 1 hr at room temperature. This was then followed by washing (×5 with PBST) and incubation with the secondary antibody (Alexa Fluor® 488 donkey α-mouse IgG, A-21202 at dilution of 1:250 at room temperature for 45 minutes. Nuclei were stained with DAPI (Vektashield, Burlingame, Calif.; H-1200). Analysis of the Aβ plaque burden was performed as percentage of the area covered in plaques using the ImageJ software.
(i) Orthogonal assay which monitors the extent to which the hits can reverse the impaired ability of apoE4 astrocytes to digest Aβ senile plaques in vitro. The principle of this orthogonal assay is presented in FIGS. 7 & 8 [17], whereas the activity of the HTS hits in this assay is presented in FIG. 9.

ECD1 of ABCA1 [3] = biological target: T1, ECD1 of ABCA1; experiment: Microscale thermophoresis (MST) binding, label free protein; details: unlabelled ECD1
Method: as §1, §2

ABCA1 = biological target: T2, ABCA1 (Homo sapiens, UniProt O95477); experiment: ABCA1 dependency of cholesterol efflux in BHK cells with inducible ABCA1; assay type: cell-based; details: for ABCA1 dependency of the effect on cholesterol efflux: BHK cells, presence vs absence of ABCA1
T2 construct: expressed in transfected cells; host or cells: BHK (baby hamster kidney) cells, ABCA1 induced with mifepristone
Method: (§3) Mife=Mifepristone which induces the expression of ABCA1.
as §3
(iii) Assessment of the ABCA1 dependency of the effects of the hits on cholesterol efflux. These experiments investigated the extent to which ABCA1 is indeed the target of the hits. This was performed utilizing BHK (baby hamster kidney) cells with inducible expression of ABCA1 followed by determination of the effects for the presence and absence of ABCA1 on the translocation of cholesterol to apoE4.

T2 sequence (O95477 whole entry): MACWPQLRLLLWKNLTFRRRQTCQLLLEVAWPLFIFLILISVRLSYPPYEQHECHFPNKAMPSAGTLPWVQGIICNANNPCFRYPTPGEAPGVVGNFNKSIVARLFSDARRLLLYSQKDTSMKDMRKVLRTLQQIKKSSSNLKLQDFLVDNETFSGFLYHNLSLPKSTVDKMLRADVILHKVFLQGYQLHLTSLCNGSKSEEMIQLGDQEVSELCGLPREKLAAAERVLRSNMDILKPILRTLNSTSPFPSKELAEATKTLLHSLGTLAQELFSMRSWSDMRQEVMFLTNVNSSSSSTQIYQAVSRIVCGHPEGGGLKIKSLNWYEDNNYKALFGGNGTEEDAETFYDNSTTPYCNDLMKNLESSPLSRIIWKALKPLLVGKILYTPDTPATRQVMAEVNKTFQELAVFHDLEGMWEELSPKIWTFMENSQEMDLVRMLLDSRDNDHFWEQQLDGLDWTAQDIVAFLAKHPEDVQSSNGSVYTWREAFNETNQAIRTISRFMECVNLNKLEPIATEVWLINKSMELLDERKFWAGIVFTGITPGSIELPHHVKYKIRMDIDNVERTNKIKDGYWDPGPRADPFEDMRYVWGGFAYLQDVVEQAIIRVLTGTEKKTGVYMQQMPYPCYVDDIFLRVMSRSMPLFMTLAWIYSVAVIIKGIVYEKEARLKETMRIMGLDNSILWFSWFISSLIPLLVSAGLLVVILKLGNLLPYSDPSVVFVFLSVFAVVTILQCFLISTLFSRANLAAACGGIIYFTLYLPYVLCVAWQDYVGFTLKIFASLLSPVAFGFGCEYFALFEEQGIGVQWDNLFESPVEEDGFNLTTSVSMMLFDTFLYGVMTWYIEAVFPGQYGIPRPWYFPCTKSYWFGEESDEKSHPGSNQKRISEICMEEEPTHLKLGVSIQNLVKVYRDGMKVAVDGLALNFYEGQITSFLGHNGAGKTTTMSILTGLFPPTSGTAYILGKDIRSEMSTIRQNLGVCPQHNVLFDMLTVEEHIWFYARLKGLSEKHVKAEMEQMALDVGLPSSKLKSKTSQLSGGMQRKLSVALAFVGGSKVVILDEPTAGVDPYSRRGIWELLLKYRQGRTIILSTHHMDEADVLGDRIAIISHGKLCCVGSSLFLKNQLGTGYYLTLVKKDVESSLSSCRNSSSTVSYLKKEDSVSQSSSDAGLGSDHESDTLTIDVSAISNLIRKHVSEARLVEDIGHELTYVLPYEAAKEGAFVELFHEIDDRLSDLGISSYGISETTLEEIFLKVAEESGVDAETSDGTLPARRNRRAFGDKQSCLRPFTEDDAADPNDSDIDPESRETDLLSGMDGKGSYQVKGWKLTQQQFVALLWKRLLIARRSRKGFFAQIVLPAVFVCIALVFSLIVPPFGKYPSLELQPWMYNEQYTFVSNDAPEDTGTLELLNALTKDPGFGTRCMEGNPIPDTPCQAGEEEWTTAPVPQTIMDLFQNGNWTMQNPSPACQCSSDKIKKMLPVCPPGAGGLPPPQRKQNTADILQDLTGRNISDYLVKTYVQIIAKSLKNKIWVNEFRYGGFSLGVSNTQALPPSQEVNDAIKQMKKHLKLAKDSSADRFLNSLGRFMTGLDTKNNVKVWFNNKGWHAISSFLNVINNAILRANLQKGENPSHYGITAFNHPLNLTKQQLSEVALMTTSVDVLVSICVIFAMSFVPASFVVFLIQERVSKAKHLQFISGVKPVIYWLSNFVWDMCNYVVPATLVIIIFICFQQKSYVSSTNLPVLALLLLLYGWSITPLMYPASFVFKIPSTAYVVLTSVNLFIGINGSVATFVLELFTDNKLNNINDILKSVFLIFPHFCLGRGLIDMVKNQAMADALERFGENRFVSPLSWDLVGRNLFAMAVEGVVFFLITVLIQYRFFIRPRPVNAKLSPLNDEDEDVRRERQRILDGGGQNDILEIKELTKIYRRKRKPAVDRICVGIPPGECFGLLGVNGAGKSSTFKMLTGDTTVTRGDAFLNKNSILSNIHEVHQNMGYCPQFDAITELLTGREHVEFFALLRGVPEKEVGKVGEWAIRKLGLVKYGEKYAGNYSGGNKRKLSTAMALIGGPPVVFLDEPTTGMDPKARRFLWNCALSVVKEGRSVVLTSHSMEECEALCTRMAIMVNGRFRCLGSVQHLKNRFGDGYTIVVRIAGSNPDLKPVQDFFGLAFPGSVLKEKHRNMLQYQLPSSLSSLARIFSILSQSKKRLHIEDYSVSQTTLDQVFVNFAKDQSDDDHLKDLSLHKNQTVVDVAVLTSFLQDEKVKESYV

| SMILES | Binding to ECD1 (Labelled MST) Amplitude (ECD1 of ABCA1 [1]) [a.u.] | Kd (ECD1 of ABCA1 [1]) [µM] | Binding to ECD1 (Label free MST) Amplitude (ECD1 of ABCA1 [3]) [a.u.] | Kd (ECD1 of ABCA1 [3]) [µM] | ABCA1 dependency of the effect on cholesterol efflux (ABCA1) | Viability Rodent Astrocytes ([2]; Table 2) | Viability Rodent Astrocytes ([2]; Table 4) | Plaque digestion assay (50 μM) Rodent Astrocytes (Rodent Astrocytes; Table 2) [%] | Plaque digestion assay (50 μM) Rodent Astrocytes (Rodent Astrocytes; Table 4) [%] | ABCA1 dependency BHK Cells (ABCA1; Table 2) | ABCA1 dependency BHK Cells (ABCA1; Table 4) | Cholesterol efflux from ABCA1 expressing BHK cells (ABCA1; BHK cells expressing ABCA1) | Lipidation of apoE4 in the absence of ABCA1 (ABCA1; BHK cells not expressing ABCA1) |
| --- | --- | --- | --- | --- | --- | --- | --- | --- | --- | --- | --- | --- | --- |
| C[C@]12CC[C@@H](O)CC1CCC1C2CC[C@](C)(C(=O)O)C1/C=C1/Nc2ccccc2C1=O (some centres unmarked) [Hit #12] | 9.05 | 11 | 90.25 | 314 |  | Normal | Normal | 105 | 105 |  |  |  |  |
| O=[N+]([O-])c1ccc(N2CCCCC2)c2nonc12 [Hit #7] | 22.05 |  |  |  |  | Normal | Normal | 93 | 93 | No activity | No activity | had no effect |  |

Further lines, with some results ahead:

| Binding to ECD1 (Labelled MST) Amplitude (ECD1 of ABCA1 [1]) [a.u.] | Kd (ECD1 of ABCA1 [1]) [µM] | Binding to ECD1 (Label free MST) Amplitude (ECD1 of ABCA1 [3]) [a.u.] | Kd (ECD1 of ABCA1 [3]) [µM] | ABCA1 dependency of the effect on cholesterol efflux (ABCA1) | SMILES | Viability Rodent Astrocytes ([2]; Table 2) | Viability Rodent Astrocytes ([2]; Table 4) | Plaque digestion assay (50 μM) Rodent Astrocytes (Rodent Astrocytes; Table 2) [%] | Plaque digestion assay (50 μM) Rodent Astrocytes (Rodent Astrocytes; Table 4) [%] | ABCA1 dependency BHK Cells (ABCA1; Table 2) | ABCA1 dependency BHK Cells (ABCA1; Table 4) | Cholesterol efflux from ABCA1 expressing BHK cells (ABCA1; BHK cells expressing ABCA1) | Lipidation of apoE4 in the absence of ABCA1 (ABCA1; BHK cells not expressing ABCA1) |
| --- | --- | --- | --- | --- | --- | --- | --- | --- | --- | --- | --- | --- | --- |
| 10.85 | 278 | 39.96 | 178 | depend on the presence of ABCA1 | Cc1nn(CC(=O)c2ccc(Br)s2)c(C)c1[N+](=O)[O-] [Hit #3] | Normal | Normal | 78 | 78 |  |  |  | did not stimulate any lipidation of apoE4 |
| 0 |  | 0 |  |  | CSC(SC)=C1CC/C(=C/c2ccc(N(C)C)cc2)C1=O [Hit #14] | Normal | Normal | 134 | 134 |  |  |  |  |
| 13.63 | 27 | 16.45 | > 350 | depend on the presence of ABCA1 | CC(C)(C)C(=O)COC(=O)c1ccccc1SCc1cc(-c2ccco2)on1 [Hit #4] | Normal | Normal | 62 | 62 |  |  |  |  |
